Data taken from article PMC10590383, “Repurposing conformational changes in ANL superfamily enzymes to rapidly generate biosensors for organic and amino acids” (Nature Communications, 2023).

Test: Dose–response curve of purified […]s with histidine
Type: biochemical
Set-up: key to Dose-response, AVE of Repeat 1-3 (Fig. 3 k): normalized ΔF/F0 (fluorescence change over baseline)
Method: Fig. 3 Dose–response curves and fluorescence spectrums of […]s. a, c, e, g, i, k Dose–response curve of purified […]s with increasing concentrations of ligand in 100 mM Tris-HCl buffer (pH=7.5). The normalized ΔF/F0 value increased after ligand binding. All data shown are mean ± S.D. (n = 3 biologically independent samples). b, d, f, h, j, l The fluorescence spectra of […]s changed as the ligand concentration increased. All data shown are mean ± S.D. (n = 3 biologically independent samples). Source data are provided as a Source data file.
The study conducted dose–response curve, substrate specificity, and fluorescent spectrum analyses in 100-mM Tris buffer (pH = 7.5), while pH stability experiments were performed in 100-mM Tris buffer at three different pH values (6.5, 7.5, and 8.5) at room temperature. […] protein at a concentration of 0.75 μM, various small molecule concentrations, 1 mM ATP, and 2.5 mM MgCl2 were used in the experiments. Fluorescent signals were detected using a Microplate Reader (Synergy H4, Bio Tek) at an excitation/emission wavelength of 460 nm/510 nm or 480 nm/510 nm. The dose-response curve was determined immediately after the addition of the analyte. The total duration of the measurement was 15 min, with readings taken at one-minute intervals. The dose-response curve was plotted using the fluorescence values obtained after achieving stability in the fluorescence signal. The dose-response curves were fitted using the logistic model LOGISTIC5 available in Origin 2021, which could provide a more adequate fit to asymmetric dose-response data[62],[63]. Excitation spectra were scanned from 300 to 540 nm with a step size of 5 nm, and the emission wavelength was set to 560 nm. Emission spectra were scanned from 470 to 700 nm with a step size of 5 nm, and the excitation wavelength was set to 450 nm. The thermal stability of […] was analyzed using the UNcle multifunctional protein stability analysis system. Measurements were performed in 20 mM MOPS buffer with 2 mM DTT at a sample concentration of 1 mg/mL. Absolute fluorescence quantum yields were measured using an absolute photoluminescence quantum yield spectrometer (FS5, Edinburgh). […]
Supplementary Fig. 2 Dose–response curves and fl uorescen ce spectr ums of GEC FINDERs. a and c, Dose– re spons e curves of puri fi ed GECF INDE R-P he1 and 2 with increas ing concen tra tions of phenylalanine (1 nM to 100 μM). The norm alized ΔF/F 0 value increas ed aft er phenylalanine binding (4 60 nm excita tion) . b and d, The fl uore scen ce spect ra of GECF IN DER-P he1 and 2 changed as the phe nylalanine concen tra tion incre ased fro m 1 nM to 100 μM. e and g, Dose–re spon se curv es of puri fied GECF IN DER-Il e1 and 2 with increas ing concen tra tio ns of isoleucine (50 nM to 10 mM). The norm alized ΔF/F 0 value increas ed aft er isoleucine binding (4 80 nm excita tion) . f and h, The fl uore scen ce spect ra of GECF INDE R-Il e1 and 2 change d as the isoleucine concen tration increas ed fro m 0.5 μM to 10 mM. i, Dose–re spon se curv e of puri fi ed GECF INDE R-H is1 with increas ing concen tra tio ns of histid ine (5 nM to 1 mM). The Norm alized ΔF/F 0 increas ed aft er histidine binding (480 nm excita tion). j, The fl uore scen ce spect ra of GECFIN DER-H is1 changed as the histid ine concen tra tion increas ed fro m 5 nM to 1 mM. k, Diffe re nce in fl uore scen ce intensity of GECF INDE R-b enzoic aci d in the pre sence of 10 µM benzoic aci d compare d to the cont ro l (0 µM benzoic aci d). […] (n=3 biological ly independent samples). *p ≤ 0.05, ***p ≤ 0.001, ****p ≤ 0.0001, and n.s. indicat ed no signifi can t diffe re nce (S tude nt’s two-t aile d t-t est). Source data are provi ded as a Source Data file . […]

N[C@@H](Cc1cnc[nH]1)C(=O)O [His]
Dose-response, AVE of Repeat 1-3 (Fig. 3 k) (His 0.005 μM): -4.366e-17
Dose-response, AVE of Repeat 1-3 (Fig. 3 k) (His 0.01 μM): 0.01906
Dose-response, AVE of Repeat 1-3 (Fig. 3 k) (His 0.05 μM): 0.01899
Dose-response, AVE of Repeat 1-3 (Fig. 3 k) (His 0.5 μM): 0.05174
Dose-response, AVE of Repeat 1-3 (Fig. 3 k) (His 5 μM): 0.1739
Dose-response, AVE of Repeat 1-3 (Fig. 3 k) (His 10 μM): 0.234
Dose-response, AVE of Repeat 1-3 (Fig. 3 k) (His 25 μM): 0.2903
Dose-response, AVE of Repeat 1-3 (Fig. 3 k) (His 50 μM): 0.3383
Dose-response, AVE of Repeat 1-3 (Fig. 3 k) (His 100 μM): 0.377
Dose-response, AVE of Repeat 1-3 (Fig. 3 k) (His 500 μM): 0.4545
Dose-response, AVE of Repeat 1-3 (Fig. 3 k) (His 750 μM): 0.4382
Dose-response, AVE of Repeat 1-3 (Fig. 3 k) (His 1000 μM): 0.4348
fluorescence intensity, AVE of 3 repeats (Supplementary Fig. 3 h, His 0.75 mM): 10877
